Laboratory results taken from ChEMBL document CHEMBL1201862, “PubChem BioAssay data set” (2004).
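Cultured in 96-well plates, cells were exposed to test compound for 48 hours across five concentrations. At the GI50, growth is halved.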 The source made the active and inactive calls. No stated cut-off is given here; in the data, active = GI50 up to about 1.1 µM and inactive = higher. Where a SMILES comes first, the peptide text is derived from it. The star is where a group is joined. Cbz = O=C(OCc1ccccc1)*

Key:
Assay in all cases: NCI-60 cell line screen, 48 h
[1] = system: EKVX
[2] = system: NCI-H460
[3] = system: 786-0
[4] = system: MDA-MB-435
[5] = system: U-251
[6] = system: MOLT-4
[7] = system: UACC-62
[8] = system: Hs-578T
[9] = system: SK-MEL-2
[10] = system: HOP-62
[11] = system: SF-268
[12] = system: UACC-257
[13] = system: HCT-15
[14] = system: K562
[15] = system: NCI-H23
[16] = system: ACHN
[17] = system: OVCAR-4
[18] = system: IGROV-1
[19] = system: HOP-92
[20] = system: SR

| SMILES | GI50 [1] | GI50 [2] | GI50 [3] | GI50 [4] | GI50 [5] | GI50 [6] | GI50 [7] | GI50 [8] | GI50 [9] | GI50 [10] | GI50 [11] | GI50 [12] | GI50 [13] | GI50 [14] | GI50 [15] | GI50 [16] | GI50 [17] | GI50 [18] | GI50 [19] | GI50 [20] |
| --- | --- | --- | --- | --- | --- | --- | --- | --- | --- | --- | --- | --- | --- | --- | --- | --- | --- | --- | --- | --- |
| COc1cc2c(cc1O)c(O)cc1c3cc(OC)c(OC)cc3c[n+](C)c21 | > 100 µM (inactive) | 15.9 µM (inactive) | 7.4 µM (inactive) | 16.4 µM (inactive) | 0.582 µM (active) | 2.86 µM (inactive) | 4.34 µM (inactive) | 4.23 µM (inactive) | > 100 µM (inactive) | 34.1 µM (inactive) | < 0.01 µM (active) | 51.8 µM (inactive) | > 100 µM | 5.04 µM (inactive) | 4.69 µM (inactive) | 56.6 µM (inactive) | > 80.5 µM (inactive) |  |  |  |
| Cc1ccc2nc3c(=O)[nH]c(=O)nc-3n(C)c2c1C | > 100 µM (inactive) | > 100 µM (inactive) | > 100 µM (inactive) | > 100 µM (inactive) | > 100 µM (inactive) | > 100 µM (inactive) | > 100 µM (inactive) | 12.1 µM (inactive) | > 100 µM (inactive) | > 100 µM (inactive) | > 100 µM (inactive) | > 100 µM (inactive) | > 100 µM | > 100 µM (inactive) | > 100 µM (inactive) | > 100 µM (inactive) | > 100 µM (inactive) | > 100 µM (inactive) |  |  |
| NC(=O)CN1CCN(c2nc(N3CCCC3)c3nc(Cl)c(NCc4ccccc4)nc3n2)CC1 | 11.8 µM (inactive) | 9.12 µM (inactive) | 8.89 µM (inactive) | 10 µM (inactive) | 8.59 µM (inactive) | 7.26 µM (inactive) | 9.2 µM (inactive) | 9.66 µM (inactive) | 9.66 µM (inactive) | 0.525 µM (active) | 8.63 µM (inactive) | 9.98 µM (inactive) | 8.67 µM | 9.86 µM (inactive) | 13.7 µM (inactive) | 12.4 µM (inactive) | 16 µM (inactive) | 12.2 µM (inactive) | 8.36 µM (inactive) |  |
| COc1ccc(/N=N/C(=N/NC(=O)c2cc(Cl)ccc2C(=O)c2ccccc2)c2ccc(N(CCC#N)CCC#N)cc2C)cc1 | 16.1 µM (inactive) | 11.5 µM (inactive) | 18.5 µM (inactive) | 27.6 µM (inactive) | 16.4 µM (inactive) | 9.08 µM (inactive) | 17.2 µM (inactive) | 29.9 µM (inactive) | 6.9 µM (inactive) | 20.1 µM (inactive) | 12.1 µM (inactive) | 27.7 µM (inactive) | 13.9 µM | 12.9 µM (inactive) | 18 µM (inactive) | 25.6 µM (inactive) | 21.4 µM (inactive) | 6.49 µM (inactive) |  |  |
| C/C(CC/C(C)=N/O)=N\O | > 100 µM (inactive) | > 100 µM (inactive) | > 100 µM (inactive) | > 100 µM (inactive) | > 100 µM (inactive) | > 100 µM (inactive) | > 100 µM (inactive) | > 100 µM (inactive) | > 100 µM (inactive) | > 100 µM (inactive) | > 100 µM (inactive) | > 100 µM (inactive) | > 100 µM | > 100 µM (inactive) | > 100 µM (inactive) | > 100 µM (inactive) | > 100 µM (inactive) | > 100 µM (inactive) |  |  |
| CC1CC(=O)Nc2cc(Cl)ccc2N1C(=O)C1CC1 (stereo not given) | > 100 µM (inactive) | > 100 µM (inactive) | > 100 µM (inactive) | > 100 µM (inactive) | > 100 µM (inactive) | > 100 µM (inactive) |  | > 100 µM (inactive) | > 100 µM (inactive) | > 100 µM (inactive) | > 100 µM (inactive) | > 100 µM (inactive) | > 100 µM | > 100 µM (inactive) | > 100 µM (inactive) | > 100 µM (inactive) | > 100 µM (inactive) | > 100 µM (inactive) | > 100 µM (inactive) |  |
| CN(Cc1cnc2nc(N)nc(N)c2n1)c1ccc(C(=O)N[C@@H](CCS(=O)(=O)O)C(=O)O)cc1 | > 73.3 µM (inactive) | 0.169 µM (active) | 0.0583 µM (active) |  | > 100 µM (inactive) | 0.745 µM (active) | 0.248 µM (active) | > 100 µM (inactive) | > 100 µM (inactive) | 1.99 µM (inactive) | 0.151 µM (active) | > 100 µM (inactive) | 0.0514 µM | > 100 µM (inactive) | 0.458 µM (active) | 0.225 µM (active) | > 100 µM (inactive) | 0.431 µM (active) | > 100 µM (inactive) | 0.0755 µM (active) |
| Cc1cc(OP2(=O)NCc3ccncc3O2)ccc1Cl (stereo not given) | > 100 µM (inactive) | > 100 µM (inactive) | > 100 µM (inactive) | > 100 µM (inactive) | > 100 µM (inactive) | > 100 µM (inactive) | > 100 µM (inactive) |  | > 100 µM (inactive) | > 100 µM (inactive) |  | > 100 µM (inactive) | > 100 µM | > 100 µM (inactive) | > 100 µM (inactive) | > 100 µM (inactive) | > 100 µM (inactive) | > 100 µM (inactive) | > 100 µM (inactive) | > 100 µM (inactive) |
| CC12CCC(C(Nc3cc(C(F)(F)F)cc(C(F)(F)F)c3)C1=O)C2(C)C (stereo not given) | > 100 µM (inactive) | > 100 µM (inactive) | > 100 µM (inactive) | > 100 µM (inactive) | > 100 µM (inactive) | > 100 µM (inactive) | > 100 µM (inactive) |  | > 100 µM (inactive) | > 100 µM (inactive) | > 100 µM (inactive) | > 100 µM (inactive) | > 100 µM | > 100 µM (inactive) | > 100 µM (inactive) | > 100 µM (inactive) | > 100 µM (inactive) | > 100 µM (inactive) |  | > 100 µM (inactive) |
| Cc1cnc2nc(-c3ccc4ccccc4c3)cc(O)c2c1 |  |  | 0.61 µM (active) |  |  | 0.431 µM (active) | 0.317 µM (active) | 0.449 µM (active) | > 100 µM (inactive) | 0.851 µM (active) | 2.81 µM (inactive) |  | 0.439 µM | 0.251 µM (active) | 0.434 µM (active) | 0.658 µM (active) | 0.659 µM (active) | 0.843 µM (active) |  |  |
| S=C(/N=c1\sc(Nc2ccc(Cl)cc2)nc2sc3c(c12)CCN(N1CCc2c(sc4nc(Nc5ccc(Cl)cc5)s/c(=N\C(=S)Nc5ccc(Cl)cc5)c24)C1)C3)Nc1ccc(Cl)cc1 | 61.7 µM (inactive) | 33.8 µM (inactive) | 18 µM (inactive) |  | 25.1 µM (inactive) | 67 µM (inactive) | 22.4 µM (inactive) | > 100 µM (inactive) | 23.4 µM (inactive) | 36.1 µM (inactive) | > 100 µM (inactive) | 43.5 µM (inactive) | 42.2 µM |  | 53.7 µM (inactive) | 35.1 µM (inactive) |  | 35.7 µM (inactive) |  |  |
| C/C=C/C1=C(Cl)C(=O)[C@@H](Cl)[C@@]1(O)C(=O)OC [(+)-CRYPTOSPORIPSIN] | 3.65 µM (inactive) | 5.09 µM (inactive) | 4.94 µM (inactive) |  | 5.02 µM (inactive) | 3.66 µM (inactive) | 1.65 µM (inactive) |  | 2.72 µM (inactive) | 1.52 µM (inactive) | 10.6 µM (inactive) | 1.6 µM (inactive) | 1.73 µM | 0.869 µM (active) | 4.08 µM (inactive) | 2.41 µM (inactive) | 2.09 µM (inactive) | 5.38 µM (inactive) | 2.25 µM (inactive) | 1.84 µM (inactive) |
| CCOC(=O)C(CC(=O)OC)NC(=O)C(CC(=O)OC)NC(=O)C(CC(=O)OC)NC(=O)C(CC(=O)OC)NC(=O)OCc1ccccc1 (stereo not given) (Cbz-D(OMe)D(OMe)D(OMe)D(OMe)-OEt; configuration not given here) | > 100 µM (inactive) | > 100 µM (inactive) | > 100 µM (inactive) |  | > 100 µM (inactive) | > 100 µM (inactive) | > 100 µM (inactive) | > 100 µM (inactive) | > 100 µM (inactive) | > 100 µM (inactive) |  | > 100 µM (inactive) | > 100 µM | > 100 µM (inactive) | > 100 µM (inactive) | > 100 µM (inactive) |  | > 100 µM (inactive) | > 100 µM (inactive) | > 100 µM (inactive) |
| CCOC(=O)c1cccnc1C(OC(C)=O)OC(C)=O | > 100 µM (inactive) | > 100 µM (inactive) | > 100 µM (inactive) |  | > 100 µM (inactive) | > 100 µM (inactive) | > 100 µM (inactive) |  | > 100 µM (inactive) | > 100 µM (inactive) | > 100 µM (inactive) | > 100 µM (inactive) | > 100 µM | > 100 µM (inactive) | > 100 µM (inactive) | 74.8 µM (inactive) | > 100 µM (inactive) | > 100 µM (inactive) | > 100 µM (inactive) | > 100 µM (inactive) |
| O=S(=O)([N-]c1nc2ccccc2nc1-[n+]1ccccc1)c1ccccc1 | > 100 µM (inactive) | > 100 µM (inactive) | > 100 µM (inactive) |  |  | 23.1 µM (inactive) | 93.1 µM (inactive) | > 100 µM (inactive) | > 100 µM (inactive) | 46.1 µM (inactive) | > 100 µM (inactive) | > 100 µM (inactive) | > 100 µM | 29.9 µM (inactive) | 67.8 µM (inactive) | > 100 µM (inactive) | > 100 µM (inactive) | > 100 µM (inactive) | > 100 µM (inactive) | 14.9 µM (inactive) |
| COC(=O)C(CC(=O)Nc1ccc(Cl)c(Cl)c1)C(=O)C(=O)NC1C2CC3CC(C2)CC1C3 (stereo not given) | 54.6 µM (inactive) | > 100 µM (inactive) | > 100 µM (inactive) |  | > 100 µM (inactive) | > 100 µM (inactive) | 92.7 µM (inactive) |  | > 100 µM (inactive) | > 100 µM (inactive) | > 100 µM (inactive) | > 100 µM (inactive) | > 100 µM | > 100 µM (inactive) | > 100 µM (inactive) | > 100 µM (inactive) | > 100 µM (inactive) | > 100 µM (inactive) | > 100 µM (inactive) | > 100 µM (inactive) |
